pIC50: −log10 of the molar value.
Test: Inhibition of JAK2 V617F mutant in BAF3 cells assessed as reduction in cell growth measured after 72 hrs by MTT assay

Q: With `C1=C/COCc2cc(ccc2OCCN2CCCC2)Nc2nccc(n2)-c2cccc(c2)COC/1` [ONX-0803] as the compound, how does the pIC50 read?
A: 5.97

Source: BindingDB's records for doi:10.1021/acs.jmedchem.9b01348 (West China Hospital of Sichuan University, 2019)
